The values that follow are results of earlier work, collected in patent publication US20100226886A1, “Combinations of MTP Inhibitors with Cholesterol Absorption Inhibitors or Interferon for Treating Hepatitis C” (priority 2007, published 2010).

For series [1] the following is noted: animal model for homozygous familial hypercholesterolemia; for example at 25 mg/day.
The conditions of series [2]: clinical studies, 80 mg/day or greater.
For series [3] the following is noted: in vivo.

“Also recorded” adds a separate entry of the source. Like-named read-outs stand apart in the source and are kept apart here.

On to `O=C(NC1CCN(CCCCC2(C(=O)NCC(F)(F)F)c3ccccc3-c3ccccc32)CC1)c1ccccc1-c1ccc(C(F)(F)F)cc1` [BMS-201038, N-(2,2,2-Trifluorethyl)-9-[4-[4-[[[4′-(trifluoromethyl) [1,1′biphenyl]-2-Yl]carbonyl]amino]-1-piperidinyl]butyl]9H-fluorene-9-carboxamide], for which the plasma cholesterol levels entry in series [1] is listed as “effectively reduced plasma cholesterol levels in a dose dependent manner”. Besides, the adverse events result by setting is: (25 mg/day) “gastrointestinal disturbances, abnormalities in liver function, and hepatic steatosis”; (25 mg/day, listed as AEGR-733) “gastrointestinal disorders, abnormalities in liver function and/or hepatic steatosis”.

For the compound `Cc1cc(C)c2c3ccccc3n(Cc3ccc([C@@H](C(=O)N[C@H](CO)c4ccccc4)C4CCCC4)cc3)c2n1` [implitapide, (2S)-2-cyclopentyl-2-[4-[(2,4-dimethyl-9H-pyrido[2,3-b]indol-9-yl)methyl]phenyl]-N-[(1S)-2-hydroxy-1-phenylethyl]ethanamide], the efficacy for hypercholesterolemia entry in series [2] was “therapeutically effective for hypercholesterolemia”. Further, where the note is “80 mg/day or greater (80 mg/day and 160 mg/day)”, the adverse events result was “gastrointestinal disturbances, abnormalities in liver function, and hepatic steatosis; also recorded: gastrointestinal disorders, abnormalities in liver function and/or hepatic steatosis”.

Turning to `NC(=O)c1ncn([C@@H]2O[C@H](CO)[C@@H](O)[C@H]2O)n1` [ribavirin], the “side effects in patients” value in series [3] is “red cell haemolysis to a variable degree in almost all patients”. In addition, the “increase of sustained response rate” value in the series on HCV (ribavirin added to interferon or peginterferon) is on record as “two- to three-fold”. Moreover, the “effect on HCV” value in the series with HCV (ribavirin by itself) is reported as “little effect on HCV”.

Alpha interferon: the “side effects in patients” value in series [3] is listed as “multiple neuropsychiatric effects”.
